Reference: patent US20200354796A1, “Use of DNA Recombination Deficiency Score (RDS) in Cancer Treatment” (SHUWEN BIOTECH CO., LTD., priority 2017, published 2020)
Counter-ions that a name gives are not always drawn.

Columns and labels:
A549 = assay: In vitro drug sensitivity test of cells, MTS method; assay type: cell-based; conditions: A549 human non-small cell lung adenocarcinoma cells, culture time 72 h-216 h
Text: (§1) 1640 medium (Gibco), DMEM medium (Hyclone), MEM medium (Gibco), […] medium (Gibco), DMEM/F12 medium (Gibco), L-15 medium (Hyclone), IMDM culture Base (Hyclone), non-essential amino acid (Gibco), sodium pyruvate (Gibco), insulin-transferrin-selenium additive TS-G, Shanghai Yuanpei Bio-tech), fetal bovine serum ([…]), trypsin digestion fluid (Jiangsu KGI), Cell Titer 96® AQueousOne Solution Cell Proliferation Assay (Promega), 96-well cell culture plate (Corning, Cat. No. 3599), Cisplatin (sigma, Cat. No. P4394), Olaparib (Selleck, Cat. No. S1060), Topotecan hydrochloride hydrate (Sigma, article number T2705), Paclitaxel (Dalian Meilun, article number MB1178). [table] […] Then the inventors adjusted the cell suspension concentration to 1×10^4/mL, added the cells to a 96 well plate as 100 ul per well, that is, 1000-2000 cells per well. Then the cells were incubated at 5% CO2, 37° C. overnight. The next day, after the cells at the bottom of the 96-well plate adhered, various drugs with different concentration gradients were added: […] After putting the 96-well plate into a CO2 incubator for 72 hours, the cell morphology and density in each were observed. For slow-growing cells, supplementation treatment was needed. For different cells, the culture time was between 72 h-216 h, and most of the cell culture time was between 144 h-168 h. […] Measure the absorbance (OD) of each well at 492 nm. Cell Viabilities was calculated by the formula: [formula]

H2228 = assay: as above; assay type: cell-based; conditions: culture time 72 h-216 h
Text: as §1

PC-3 = assay: as above; assay type: cell-based; conditions: PC-3 human prostate cancer cells, culture time 72 h-216 h
Text: as §1

Capan-1 = assay: as above; assay type: cell-based; conditions: Capan-1 human pancreatic cancer cells, culture time 72 h-216 h
Text: as §1

HCC95 = assay: as above; assay type: cell-based; conditions: HCC95 human lung cancer cells, culture time 72 h-216 h
Text: as §1

H2444 = assay: as above; assay type: cell-based; conditions: culture time 72 h-216 h
Text: as §1

HCC1937 = assay: as above; assay type: cell-based; conditions: HCC1937 human breast cancer cells, culture time 72 h-216 h
Text: as §1

H1975 = assay: as above; assay type: cell-based; conditions: culture time 72 h-216 h
Text: as §1

H1299 = assay: as above; assay type: cell-based; conditions: culture time 72 h-216 h
Text: as §1

H520 = assay: as above; assay type: cell-based; conditions: culture time 72 h-216 h
Text: as §1

MCF-7 = assay: as above; assay type: cell-based; conditions: culture time 72 h-216 h
Text: as §1

Cal-120 = assay: as above; assay type: cell-based; conditions: Cal-120 human breast cancer cells, culture time 72 h-216 h
Text: as §1

KYSE450 = assay: as above; assay type: cell-based; conditions: culture time 72 h-216 h
Text: as §1

H3122 = assay: as above; assay type: cell-based; conditions: culture time 72 h-216 h
Text: as §1

T84 = assay: as above; assay type: cell-based; conditions: T84 human colon cancer cells, culture time 72 h-216 h
Text: as §1

HCC827 = assay: as above; assay type: cell-based; conditions: HCC827 human lung adenocarcinoma cells, culture time 72 h-216 h
Text: as §1

HCC4006 = assay: as above; assay type: cell-based; conditions: HCC4006 human lung adenocarcinoma cells, culture time 72 h-216 h
Text: as §1

CAMA-1 = assay: as above; assay type: cell-based; conditions: CAMA-1 human breast cancer cells, culture time 72 h-216 h
Text: as §1

HT29 = assay: as above; assay type: cell-based; conditions: culture time 72 h-216 h
Text: as §1

H1650 = assay: as above; assay type: cell-based; conditions: culture time 72 h-216 h
Text: as §1

HEK-293 = assay: as above; assay type: cell-based; conditions: culture time 72 h-216 h
Text: as §1

MDA-MB-436 = assay: as above; assay type: cell-based; conditions: MDA-MB-436 human breast cancer cells, culture time 72 h-216 h
Text: as §1

TNBC patients = conditions: CALGB 40603 study, combined carboplatin, cited from earlier work
[1] = NCI-H2228, H2228 human non-small cell lung adenocarcinoma cells
[2] = NCI-H2444, H2444 human non-small cell lung cancer cells
[3] = NCI-H1975, H1975 human non-small cell lung adenocarcinoma cells
[4] = NCI-H1299, H1299 human non-small cell lung cancer cells
[5] = NCI-H520, H520 human non-small cell lung squamous cell
[6] = MCF7, MCF-7 human breast cancer cells
[7] = KYSE-450, KYSE450 human esophageal cancer cells
[8] = NCI-H3122, H3122 human non-small cell lung cancer cells
[9] = HT-29, HT29 human colon cancer cells
[10] = NCI-H1650, H1650 human lung cancer cells
[11] = HEK293, HEK-293 human embryonic kidney cells

Compound | IC50 (A549) | IC50 (PC-3) | IC50 (Capan-1) | IC50 (HCC95) | IC50 (HCC1937) | IC50 (Cal-120) | IC50 (T84) | IC50 (HCC827) | IC50 (HCC4006) | IC50 (CAMA-1) | IC50 (MDA-MB-436) | IC50 (H2228; [1]) | IC50 (H2444; [2]) | IC50 (H1975; [3]) | IC50 (H1299; [4]) | IC50 (H520; [5]) | IC50 (MCF-7; [6]) | IC50 (KYSE450; [7]) | IC50 (H3122; [8]) | IC50 (HT29; [9]) | further results
N.N.[Cl][Pt][Cl] [Cisplatin, cis-diaminedichloroplatinum(II)] | 1000 nM | 799 nM | 214 nM | 878 nM | 259 nM | 4440 nM | 433 nM | 626 nM | 1000 nM | 1400 nM | 139 nM |  |  |  |  |  |  |  |  |  | IC50 (H2228; H2228 human non-small cell lung adenocarcinoma cells): 514 nM; IC50 (H2444; H2444 human non-small cell lung cancer cells): 1140 nM; IC50 (H1975; H1975 human non-small cell lung adenocarcinoma cells): 7000 nM; IC50 (H1299; H1299 human non-small cell lung cancer cells): 2000 nM; IC50 (H520; H520 human non-small cell lung squamous cell): 464 nM; IC50 (MCF-7; MCF-7 human breast cancer cells): 894 nM; IC50 (KYSE450; KYSE450 human esophageal cancer cells): 1460 nM; IC50 (H3122; H3122 human non-small cell lung cancer cells): 1540 nM; IC50 (HT29; HT29 human colon cancer cells): 692 nM; IC50 (H1650; H1650 human lung cancer cells): 1060 nM; IC50 (HEK-293; HEK-293 human embryonic kidney cells): 465 nM
O=C(c1cc(Cc2n[nH]c(=O)c3ccccc23)ccc1F)N1CCN(C(=O)C2CC2)CC1 [Olaparib] | 80000 nM | 6220 nM | 2570 nM | 25300 nM | 10000 nM | 160000 nM | 5850 nM | 6080 nM | 9140 nM | 8330 nM | < 2500 nM | 10800 nM | 7670 nM | 80000 nM | 40000 nM | 2190 nM | 3510 nM | 130000 nM | 16900 nM | 7660 nM | IC50 (H1650; [10]): 75000 nM; IC50 (HEK-293; [11]): 5880 nM
CC(=O)O[C@H]1C(=O)[C@@]2(C)[C@H]([C@H](OC(=O)c3ccccc3)[C@]3(O)C[C@H](OC(=O)[C@H](O)[C@@H](NC(=O)c4ccccc4)c4ccccc4)C(C)=C1C3(C)C)[C@]1(OC(C)=O)CO[C@@H]1C[C@@H]2O [Paclitaxel] | 5.86 nM | 4.27 nM | 6.99 nM | 6.13 nM | 9 nM | 43.5 nM | 32.1 nM | 9.26 nM | 3.85 nM | 4.16 nM | 9.67 nM | 5.2 nM | 7.1 nM | 7 nM | 22.7 nM | 6.99 nM | 4.84 nM | 11.5 nM | 8.48 nM | 3.05 nM | IC50 (H1650; [10]): 6.61 nM; IC50 (HEK-293; [11]): 10.3 nM
CC[C@@]1(O)C(=O)OCc2c1cc1n(c2=O)Cc2cc3c(CN(C)C)c(O)ccc3nc2-1 [Topotecan, Topotecan hydrochloride hydrate] | 250 nM | 20.1 nM | 15.8 nM | 46.7 nM | 35.2 nM | 518 nM | 7.56 nM | 12.6 nM | 23.1 nM | 0.907 nM | 4.21 nM | 24.6 nM | 8.09 nM | 250 nM | 28.7 nM | 9.17 nM | 2.05 nM | 26.3 nM | 20 nM | 15.6 nM | IC50 (H1650; [10]): 125 nM; IC50 (HEK-293; [11]): 18 nM
carboplatin |  |  |  |  |  |  |  |  |  |  |  |  |  |  |  |  |  |  |  |  | breast/axillary pCR rates (TNBC patients; vs 41% without, P=0.0029): 54%; breast pCR rates (TNBC patients; vs 44% without, P=0.0018): 60%
